Data on three compounds can be found in patent EP4759817A1, “HETEROARYL COMPOUND, PREPARATION METHOD THEREFOR, AND USE THEREOF IN MEDICINE” (Jiangsu Hengrui Pharmaceuticals Co., Ltd., priority 2023, dated 2025).

The target in series [1] is T1, Recombinant human PRMT5: MEP50 protein (Homo sapiens, UniProt O14744).
T1 construct: purchased active motif 31521
Description: Inhibitory activity against human PRMT5 enzymatic activity (HTRF quantification of SAH, +MTA). It counts as biochemical. Conditions: +1 µM MTA; histone H4 peptide substrate (1-21), SAM; 37°C 120 min. The protocol: • 1. Recombinant human PRMT5: MEP50 protein (active motif, 31521) • 2. EPIgeneous Methyltransferase kit (cisbio, 62SAHPEH) • 3. 96-well plate (Sangon Biotech, F610960-0010) • 4. 384-well white plate (Perkin Elmer, 6007290) • 5. 1 M Tris-HCl [pH 8.5] (Sangon Biotech, B548141) • 6. Histone H4 peptide substrates (1-21) (BPS bioscience, 52014) • 7. 5'-deoxy-5'-(methylthio)adenosine (Aladdin, D168979-25 mg) • 8. Tween-20 (Sangon Biotech, A100777-0500) • 9. DMSO (Sigma, D2650) • 10. Incubator (Shanghai Boxun Medical Biological Instrument Corp.) • 11. PHERAstar FS microplate reader (BMG Labtech)
PRMT5 can induce the transfer of a methyl group from S-adenosylmethionine (SAM) to a histone H4 peptide substrate (1-21), generating S-adenosylhomocysteine (SAH). In this experiment, the amount of SAH produced in the reaction is quantified using a Homogeneous Time-Resolved Fluorescence (HTRF) method to evaluate the inhibitory activity of compounds against PRMT5 enzymatic activity.
The sample diluent containing (or not containing) 1 µM 5 '-deoxy-5' - (methylthiyl) adenosine (MTA) was prepared using the EPIgeneous Diluent Buffer from the EPIgeneous Methyltransferase kit. With reference to the instructions, SAM and SAH standards were serially diluted and dispensed at 10 µL per well (in duplicate for each concentration). 2 µL of EPIgeneous Detection Buffer 1 was added to each well, and the plate was centrifuged, shaken to mix thoroughly, and placed at room temperature for 10 min. The SAH d2 Reagent was diluted 32-fold with EPIgeneous Detection Buffer 2, and 4 µL of the diluted SAH-d2 solution was added to each well. The plate was centrifuged and shaken for 2 min to mix thoroughly. The SAH Tb Cryptate Antibody was diluted 50-fold in EPIgeneous Detection Buffer 2. 4 µL of the diluted Tb Cryptate Antibody solution was added to each well, and the plate was centrifuged, shaken for 2 min to mix thoroughly, and left to stand at room temperature for 60 min, followed by reading on a PHERAstar FS microplate reader to obtain the 665/620 ratio. Plotting SAH concentration against the ratio to generate an x-y curve yields a corresponding calculation formula.
Reaction buffer (1×): 50 mM Tris-HCl [pH 8.5], 1 mM DTT, 0.005% Tween-20.
Compound preparation: a 20 mM solution of test compound in 100% DMSO was diluted in 100% DMSO to 1 mM as the highest concentration, and the solution at this concentration was then subjected to a 10-point, 3-fold serial dilution in 100% DMSO in a 96-well plate. Wells containing 100% DMSO served as the blank control. The above-described serially diluted compounds and the 100% DMSO were diluted 20-fold with the reaction buffer to prepare 5× compound solutions, which were mixed thoroughly for use.
The PRMT5:MEP50 was diluted in the reaction buffer to a final concentration of 12.5 nM. Then, 4 µL of the 12.5 nM PRMT5:MEP50 solution was added to each well of a 384-well plate. Wells containing 4 µL of the reaction buffer served as the negative control wells. 2 µL of the 5× compound solution was added to each well. For the negative control wells (no enzyme, no compound) and the positive control wells (no compound), 2 µL of 5% DMSO was added. The plate was sealed with a membrane, centrifuged, shaken for 2 min to mix thoroughly, and placed at room temperature for 20 min.
Preparation of substrate mixture solution: The substrate mixture solution containing 1.5 µM histone H4 peptide substrate (1-21) and 2.5 µM SAM, or 1.5 µM histone H4 peptide substrate (1-21), 2.5 µM SAM and 2.5 µM MTA was prepared in the reaction buffer.
The reaction was initiated by adding 4 µL of the substrate mixture solution (-/+ MTA) to each well. The plate was sealed with a membrane, centrifuged, shaken for 2 min to mix thoroughly, and incubated at 37°C for 120 min in a constant temperature incubator.
Detection: The detection was performed by using the EPIgeneous Methyltransferase kit. […]

Series [2] in a line: Pharmacokinetic evaluation in Nu/Nu mice (plasma, LC-MS/MS). It counts as in vivo. Conditions: mouse, plasma, po, i.g., 100 mg/kg; for Vd/F: read-out: Apparent volume of distribution V/F; for AUC(0-t): read-out: Area under the curve AUC0-t; for CL/F: read-out: Clearance CL/F; for half-life: read-out: Half life T1/2 (converted); for Cmax: read-out: Plasma concentration Cmax. On the procedure: Using Nu/Nu mice as the test animals, the plasma concentrations of the example compounds at different time points were determined by LC-MS/MS following oral gavage (i.g.) administration. The pharmacokinetic behaviours of the compounds of the present disclosure in Nu/Nu mice were investigated, and their pharmacokinetic profiles were evaluated.
Compound 1-p1, compound 2-p1, compound 8-p1 and comparative example 1.
A total of 36 female Nu/Nu mice (supplied by Vital River Laboratory Animal Technology Co., Ltd.) were randomly divided into 4 groups.
An appropriate amount of each test compound was weighed and dissolved in 5% DMSO+20% PEG400+70% (10% TPGS)+5% (1% HMPC K100LV) to prepare a 10 mg/mL colourless clear solution.
The administration dosage was 100 mg/kg, and the administration volume was 10 mL/kg.
Mice were not fasted. After oral gavage administration, blood (0.1 mL) was collected from the orbital cavity before administration, and at 0.25 h, 0.5 h, 1.0 h, 2.0 h, 4.0 h, 6.0 h, 8.0 h, 11.0 h and 24.0 h after administration. The blood was placed into EDTA-K2 anticoagulant tubes and centrifuged at 10000 rpm for 1 minute (4°C) to separate plasma. The plasma was separated within 1 h and stored at -20°C until analysis. The entire process from blood collection to centrifugation was performed in ice bath conditions.
Determination of test compound contents in plasma of Nu/Nu mice after administration of different compounds: To 20 µL of plasma samples from each time point in Nu/Nu mice, 200 µL of acetonitrile and 25 µL of verapamil (100 ng/mL) were added. The mixture was vortex-mixed for 5 minutes and centrifuged at 4000 rpm for 15 minutes. 90 µL of water and 90 µL of the supernatant were vortex-mixed for 5 minutes. 2 µL (for compound 1-p1), 2 µL (for compound 2-p1), 1 µL (for compound 8-p1), or 0.5 µL (for comparative example 1) of the supernatant was taken for LC-MS/MS analysis receptively.

The IC50 is the point on the concentration scale where inhibition reaches its midpoint.

T1 sequence (O14744 whole entry): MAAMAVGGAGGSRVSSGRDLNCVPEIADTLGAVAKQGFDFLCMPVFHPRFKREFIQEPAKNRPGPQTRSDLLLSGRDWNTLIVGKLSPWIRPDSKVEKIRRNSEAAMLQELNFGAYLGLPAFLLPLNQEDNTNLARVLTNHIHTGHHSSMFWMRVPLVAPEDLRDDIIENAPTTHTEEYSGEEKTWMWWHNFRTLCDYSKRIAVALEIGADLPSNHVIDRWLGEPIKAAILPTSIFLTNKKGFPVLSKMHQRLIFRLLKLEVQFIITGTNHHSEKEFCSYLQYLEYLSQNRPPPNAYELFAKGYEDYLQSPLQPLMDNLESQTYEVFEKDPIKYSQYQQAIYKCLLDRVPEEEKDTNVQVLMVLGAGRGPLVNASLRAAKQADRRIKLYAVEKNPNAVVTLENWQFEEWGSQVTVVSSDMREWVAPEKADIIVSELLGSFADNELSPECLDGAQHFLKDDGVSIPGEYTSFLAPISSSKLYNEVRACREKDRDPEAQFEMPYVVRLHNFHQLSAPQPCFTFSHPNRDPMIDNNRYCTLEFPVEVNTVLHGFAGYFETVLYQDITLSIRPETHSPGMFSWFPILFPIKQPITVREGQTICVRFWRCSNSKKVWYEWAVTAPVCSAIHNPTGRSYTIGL
T1 sequence (Q9BQA1 whole entry partner): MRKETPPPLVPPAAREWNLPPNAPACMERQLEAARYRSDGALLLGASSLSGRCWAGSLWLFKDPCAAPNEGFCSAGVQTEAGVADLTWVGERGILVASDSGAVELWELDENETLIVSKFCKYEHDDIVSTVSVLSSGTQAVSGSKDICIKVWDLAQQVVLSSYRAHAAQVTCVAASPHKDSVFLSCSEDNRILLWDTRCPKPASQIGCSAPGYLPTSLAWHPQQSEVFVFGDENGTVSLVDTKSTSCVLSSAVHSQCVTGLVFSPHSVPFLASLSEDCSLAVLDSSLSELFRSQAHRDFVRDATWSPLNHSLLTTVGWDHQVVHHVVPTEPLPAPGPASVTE

Regarding `[2H]C([2H])([2H])n1ncc(-c2ccc3c(=O)[nH]nc(CN)c3c2)c1-c1c(F)cc2c(c1C#N)O[C@H]1CC[C@H]1O2` (single isomer, unassigned) [Compound 2-p1], the IC50 in series [1] came out at 5.23 nM. Moreover, in series [2], the Vd/F was determined as 23.3 L/kg, the AUC(0-t) was found to be 7140 ng·h/mL, the CL/F is 233 mL/min/kg and the half-life is 1.2 h. The Cmax in series [2] was 2940 ng/mL.

Regarding `[2H]C([2H])([2H])n1ncc(-c2ccc3c(=O)[nH]nc(CN)c3c2)c1-c1c(F)cc2c(c1C#N)N1CCC[C@H]1CO2` (single isomer, unassigned) [Compound 8-p1], the IC50 in series [1] was determined as 5.19 nM. Further, in series [2], the Vd/F came out at 23.9 L/kg, the AUC(0-t) is 7640 ng·h/mL, the CL/F stood at 218 mL/min/kg and the half-life was 1.3 h. The Cmax in series [2] was found to be 2530 ng/mL.

Take `Cn1ncc(-c2ccc3c(=O)[nH]nc(CN)c3c2)c1-c1c(F)cc2c(c1C#N)O[C@H]1CC[C@H]1O2` (atropisomer, axis not shown; (M)) [Compound 1-p1, (M)-(2aS,8aR)-5-(4-(4-(aminomethyl)-1-oxo-1,2-dihydrophthalazin-6-yl)-1-methyl-1H-pyrazol-5-yl)-6-fluoro-1,2,2a,8a-tetrahydrobenzo[b]cyclobuta[e][1,4]dioxine-4-carbonitrile]: in series [1], the IC50 came out at 4.91 nM. For the same compound, in series [2], the Vd/F amounted to 35.4 L/kg, the AUC(0-t) was found to be 8650 ng·h/mL, the CL/F came to 189 mL/min/kg and the half-life is 2.2 h. In addition, the Cmax in series [2] was 3250 ng/mL.
